Experiments:
Experiment in all cases: relative viability (nuclei count vs DMSO), 5 days (fraction); higher = more cells survive
QS11 + Pemetrexed = compound: C1CC2=C(C1)C=C(C=C2)OC3=NC(=C4C(=N3)N(C=N4)CC5=CC=C(C=C5)C6=CC=CC=C6)N[C@@H](CC7=CC=CC=C7)CO [QS11] + Nc1nc2[nH]cc(CCc3ccc(C(=O)N[C@@H](CCC(=O)O)C(=O)O)cc3)c2c(=O)[nH]1 [Pemetrexed] (partner 0.2 µM)
Procedure, shortened: (§1)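 After 5 days of treatment, lung cancer cells in 1536-well plates were fixed and stained in a single step (final 0.05% Triton X-100, 1% formaldehyde, 1 ug/ml Hoechst) and their nuclei counted on 4× images. Treatment had been applied by pin tool the day after seeding as one drug alone or as a fixed anchor-drug dose with five library-drug doses (not always all listed) in √10 steps. Relative viability is the nuclei count of treated wells divided by that of vehicle wells, and values are medians of duplicate plates.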

Darinaparsin + Alpelisib = compound: C[As](C)SC[C@H](NC(=O)CC[C@H](N)C(=O)O)C(=O)NCC(=O)O [Darinaparsin] + Cc1nc(NC(=O)N2CCC[C@H]2C(N)=O)sc1-c1ccnc(C(C)(C)C(F)(F)F)c1 [Alpelisib] (partner 2 µM)
Procedure, shortened: as §1

QS11 + Trametinib = compound: C1CC2=C(C1)C=C(C=C2)OC3=NC(=C4C(=N3)N(C=N4)CC5=CC=C(C=C5)C6=CC=CC=C6)N[C@@H](CC7=CC=CC=C7)CO [QS11] + CC(=O)Nc1cccc(-n2c(=O)n(C3CC3)c(=O)c3c(Nc4ccc(I)cc4F)n(C)c(=O)c(C)c32)c1 [Trametinib] (partner 0.02 µM)
Procedure, shortened: as §1

[1] = compound: C[As](C)SC[C@H](NC(=O)CC[C@H](N)C(=O)O)C(=O)NCC(=O)O [Darinaparsin] + Nc1ncn([C@H]2C[C@H](O)[C@@H](CO)O2)c(=O)n1 [Decitabine] (partner 2 µM)
Procedure, shortened: as §1

| Cell Line | relative viability (QS11 + Pemetrexed; first compound 0.08 µM) | relative viability (QS11 + Pemetrexed; first compound 0.253 µM) | relative viability (QS11 + Pemetrexed; first compound 2.53 µM) | relative viability (QS11 + Pemetrexed; first compound 8 µM) | relative viability (Darinaparsin + Alpelisib; first compound 0.08 µM) | relative viability (Darinaparsin + Alpelisib; first compound 0.8 µM) | relative viability (Darinaparsin + Alpelisib; first compound 2.53 µM) | relative viability (Darinaparsin + Alpelisib; first compound 8 µM) | relative viability (QS11 + Trametinib; first compound 0.08 µM) | relative viability (QS11 + Trametinib; first compound 0.253 µM) | relative viability (QS11 + Trametinib; first compound 2.53 µM) | relative viability (QS11 + Trametinib; first compound 8 µM) | relative viability ([1]; first compound 0.08 µM) | relative viability ([1]; first compound 0.8 µM) | relative viability ([1]; first compound 2.53 µM) | relative viability ([1]; first compound 8 µM) | relative viability (QS11 + Pemetrexed; first compound 0.8 µM) | relative viability (QS11 + Trametinib; first compound 0.8 µM) |
| --- | --- | --- | --- | --- | --- | --- | --- | --- | --- | --- | --- | --- | --- | --- | --- | --- | --- | --- |
| NCI-H1944 | 0.535 | 0.632 | 0.491 | 0.565 | 0.946 | 0.912 | 0.823 | 0.905 | 0.423 | 0.4 | 0.349 | 0.353 | 0.437 | 0.466 | 0.452 | 0.442 | – | – |
| NCI-H1975 | 0.302 | 0.279 | 0.326 | 0.307 | 0.758 | 0.777 | 0.483 | 0.704 | 0.329 | 0.246 | 0.424 | 0.327 | 0.382 | 0.429 | 0.425 | 0.374 | 0.332 | 0.328 |
| NCI-H1993 | 0.649 | 0.503 | 0.573 | 0.618 | 0.712 | 0.681 | 0.688 | 0.678 | 0.57 | 0.532 | 0.508 | 0.522 | 0.626 | 0.584 | 0.608 | 0.586 | 0.618 | 0.442 |
| NCI-H2009 | 1.08 | 1.06 | 0.978 | 0.985 | 1.25 | 1.19 | 1.06 | 1.16 | 0.242 | 0.32 | 0.279 | 0.256 | 0.412 | 0.354 | 0.375 | 0.398 | 1.01 | 0.24 |
| NCI-H2023 | 0.293 | 0.276 | 0.197 | 0.194 | 0.658 | 0.601 | 0.536 | 0.603 | 0.616 | 0.57 | 0.68 | 0.597 | 0.219 | 0.219 | 0.196 | 0.216 | 0.241 | 0.661 |
| NCI-H2085 | 0.879 | 0.841 | 1.04 | 1.01 | 1.07 | 1 | 1.03 | 0.957 | 0.512 | 0.483 | 0.513 | 0.508 | 0.532 | 0.474 | 0.601 | 0.527 | 0.925 | 0.43 |
| NCI-H2087 | 0.646 | 0.646 | 0.692 | 0.757 | 1.15 | 0.988 | 1.13 | 1.18 | 0.243 | 0.219 | 0.22 | 0.205 | 0.322 | 0.286 | 0.28 | 0.282 | 0.675 | 0.211 |
| NCI-H2126 | 0.623 | 0.681 | 0.565 | 0.59 | 0.803 | 0.737 | 0.616 | 0.804 | 0.588 | 0.562 | 0.596 | 0.508 | 0.597 | 0.578 | 0.575 | 0.635 | 0.604 | 0.567 |
| NCI-H2170 | 0.271 | 0.288 | 0.274 | 0.287 | 0.927 | 0.759 | 0.629 | 1.13 | 0.93 | 0.962 | 1.01 | 1.04 | 0.488 | 0.502 | 0.544 | 0.458 | 0.243 | 0.728 |
| NCI-H2347 | 0.455 | 0.426 | 0.458 | 0.446 | 1.21 | 1.09 | 1.04 | 1.09 | 0.27 | 0.292 | 0.313 | 0.286 | 0.667 | 0.632 | 0.733 | 0.697 | 0.396 | 0.273 |
| NCI-H2405 | 1.01 | 1.02 | 1.05 | 1.05 | 0.735 | 0.734 | 0.693 | 0.755 | 0.628 | 0.585 | 0.719 | 0.79 | 0.802 | 0.716 | 0.663 | 0.735 | 0.974 | 0.731 |
| NCI-H3122 | 0.2 | 0.214 | 0.25 | 0.296 | 0.9 | 0.796 | 0.735 | 1.01 | 0.213 | 0.239 | 0.253 | 0.343 | 0.425 | 0.437 | 0.42 | 0.442 | – | – |
| PC-3 [JPC-3] | – | 0.951 | 0.935 | 1.17 | 1.02 | 0.982 | 0.992 | 1.11 | – | 0.712 | 0.641 | 0.568 | 0.748 | 0.773 | 0.847 | 0.796 | 1.08 | 0.674 |
| PC-14 | – | 0.145 | 0.178 | 0.155 | 0.858 | 1.02 | 0.742 | 1.2 | – | 0.66 | 0.717 | 0.634 | 0.253 | 0.197 | 0.201 | 0.202 | 0.14 | 0.698 |
| RERF-LC-KJ | 0.51 | 0.461 | 0.482 | 0.439 | 0.865 | 0.917 | 0.73 | 0.873 | 0.825 | 0.902 | 0.865 | 0.76 | 0.728 | 0.68 | 0.687 | 0.561 | 0.443 | 0.843 |
| SK-LU-1 | 0.993 | 1.07 | 0.835 | 0.781 | 1.11 | 0.956 | 0.797 | 1.06 | 0.443 | 0.508 | 0.522 | 0.55 | 0.637 | 0.587 | 0.495 | 0.759 | 0.913 | 0.441 |
| SK-MES-1 | 1.08 | 0.94 | 0.977 | 0.863 | 1.01 | 0.909 | 0.63 | 0.993 | 0.519 | 0.557 | 0.507 | 0.527 | 0.358 | 0.357 | 0.34 | 0.388 | 0.832 | 0.451 |
| SW 1573 | 0.811 | 0.926 | 0.418 | 0.539 | 0.744 | 0.729 | 0.472 | 0.832 | 0.542 | 0.553 | 0.41 | 0.365 | 0.564 | 0.468 | 0.61 | 0.555 | 0.792 | 0.519 |
| UMC-11 | 0.87 | 0.89 | 0.97 | 0.993 | 0.861 | 0.981 | 0.683 | 1.15 | 0.603 | 0.548 | 0.775 | 0.898 | 0.563 | 0.574 | 0.636 | 0.677 | 0.716 | 0.618 |

From the supplement of paper PMC10307832
